Reference: patent US20230139171A1 (SITA Information Networking Computing UK Limited, priority 2019, published 2023)

Assays:
Type in all cases: cell-based
[1] = molecular target: T1, human TLR9 (Homo sapiens, UniProt Q9NR96); test: TLR9 inhibition reporter assay (HEK-Blue cells, SEAP reporter, ODN2006 stimulation); settings: HEK-Blue cells overexpressing human TLR9, SEAP reporter, ODN2006 5 nM
T1 construct: host or cells: HEK-Blue cells
T1 sequence (Q9NR96 26-1032): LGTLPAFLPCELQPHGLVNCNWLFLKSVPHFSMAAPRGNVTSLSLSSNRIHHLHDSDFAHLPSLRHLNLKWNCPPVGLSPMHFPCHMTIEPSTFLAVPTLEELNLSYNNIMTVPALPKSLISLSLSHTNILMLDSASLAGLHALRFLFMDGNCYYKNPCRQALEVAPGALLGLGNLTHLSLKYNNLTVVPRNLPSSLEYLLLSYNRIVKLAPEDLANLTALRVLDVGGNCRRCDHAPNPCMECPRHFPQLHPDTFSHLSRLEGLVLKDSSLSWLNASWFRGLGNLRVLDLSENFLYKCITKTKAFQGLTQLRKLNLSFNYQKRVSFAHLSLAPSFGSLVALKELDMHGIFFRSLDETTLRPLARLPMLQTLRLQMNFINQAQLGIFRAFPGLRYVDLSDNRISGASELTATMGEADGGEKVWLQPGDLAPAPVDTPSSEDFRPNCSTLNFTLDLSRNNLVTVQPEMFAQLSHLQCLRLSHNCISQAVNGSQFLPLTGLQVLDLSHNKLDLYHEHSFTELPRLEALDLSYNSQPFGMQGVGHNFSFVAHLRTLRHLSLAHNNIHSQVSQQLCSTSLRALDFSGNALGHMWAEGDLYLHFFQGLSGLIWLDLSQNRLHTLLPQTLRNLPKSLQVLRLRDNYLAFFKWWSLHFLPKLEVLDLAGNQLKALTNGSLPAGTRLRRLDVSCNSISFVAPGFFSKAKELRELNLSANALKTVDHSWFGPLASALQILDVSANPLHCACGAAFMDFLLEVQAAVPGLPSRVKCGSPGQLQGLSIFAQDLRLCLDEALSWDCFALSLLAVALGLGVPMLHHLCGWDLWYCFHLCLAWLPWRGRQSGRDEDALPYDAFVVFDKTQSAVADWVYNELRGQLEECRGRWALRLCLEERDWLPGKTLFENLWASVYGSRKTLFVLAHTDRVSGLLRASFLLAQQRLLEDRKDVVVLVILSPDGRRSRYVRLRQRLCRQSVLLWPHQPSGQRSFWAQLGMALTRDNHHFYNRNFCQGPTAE
Protocol: TLR7/8/9 Inhibition Reporter Assays
HEK-Blue™-cells (Invivogen) overexpressing human TLR7, TLR8 or TLR9 receptors were used for screening inhibitors of these receptors using an inducible SEAP (secreted embryonic alkaline phosphatase) reporter gene under the control of the IFN-β minimal promoter fused to five NF-κB and AP-1-binding sites. Briefly, cells are seeded into Greiner 384 well plates (15000 cells per well for TLR7, 20,000 for TLR8 and 25,000 for TLR9) and then treated with test compounds in DMSO to yield a final dose response concentration range of 0.05 nM-50 μM. After a 30 minute compound pre-treatment at room temperature, the cells are then stimulated with a TLR7 ligand (gardiquimod at a final concentration of 7.5 μM), TLR8 ligand (R848 at a final concentration of 15.9 μM) or TLR9 ligand (ODN2006 at a final concentration of 5 nM) to activate NF-κB and AP-1 which induce the production of SEAP. After a 22 hour incubation at 37° C., 5% CO2, SEAP levels are determined with the addition of HEK-Blue™ Detection reagent (Invivogen), a cell culture medium that allows for detection of SEAP, according to manufacturer's specifications. The percent inhibition is determined as the % reduction in the HEK-Blue signal present in wells treated with agonist plus DMSO alone compared to wells treated with a known inhibitor.

[2] = molecular target: T2, human TLR8 (Homo sapiens, UniProt Q9NR97); test: TLR8 inhibition reporter assay (HEK-Blue cells, SEAP reporter, R848 stimulation); settings: HEK-Blue cells overexpressing human TLR8, SEAP reporter, R848 15.9 μM; read-out: TLR8 IC50
T2 construct: host or cells: HEK-Blue cells
T2 sequence (Q9NR97 27-1041): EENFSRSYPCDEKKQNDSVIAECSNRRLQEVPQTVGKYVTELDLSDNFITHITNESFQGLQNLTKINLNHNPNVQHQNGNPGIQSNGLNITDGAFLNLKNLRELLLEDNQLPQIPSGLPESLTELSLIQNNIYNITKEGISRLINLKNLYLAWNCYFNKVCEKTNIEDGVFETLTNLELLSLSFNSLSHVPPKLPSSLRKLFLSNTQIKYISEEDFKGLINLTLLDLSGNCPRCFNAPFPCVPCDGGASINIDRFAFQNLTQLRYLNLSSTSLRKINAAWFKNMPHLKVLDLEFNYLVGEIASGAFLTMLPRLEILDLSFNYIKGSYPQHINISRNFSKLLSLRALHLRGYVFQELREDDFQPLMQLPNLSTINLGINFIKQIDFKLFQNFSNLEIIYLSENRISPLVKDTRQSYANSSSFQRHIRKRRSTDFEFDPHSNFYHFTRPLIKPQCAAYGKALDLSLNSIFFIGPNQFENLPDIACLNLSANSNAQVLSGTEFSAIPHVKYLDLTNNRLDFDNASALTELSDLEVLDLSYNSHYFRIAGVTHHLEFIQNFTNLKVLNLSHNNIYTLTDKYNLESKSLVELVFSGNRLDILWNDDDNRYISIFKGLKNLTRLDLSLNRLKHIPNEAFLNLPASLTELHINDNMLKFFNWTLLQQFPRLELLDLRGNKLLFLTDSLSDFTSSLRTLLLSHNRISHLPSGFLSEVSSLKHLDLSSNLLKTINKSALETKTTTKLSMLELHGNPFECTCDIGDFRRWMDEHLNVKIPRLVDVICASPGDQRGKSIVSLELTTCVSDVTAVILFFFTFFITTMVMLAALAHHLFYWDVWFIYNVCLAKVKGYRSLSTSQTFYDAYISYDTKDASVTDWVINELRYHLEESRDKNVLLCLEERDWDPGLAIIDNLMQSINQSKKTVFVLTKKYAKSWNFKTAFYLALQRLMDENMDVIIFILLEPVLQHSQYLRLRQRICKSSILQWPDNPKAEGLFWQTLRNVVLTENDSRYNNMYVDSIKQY
In short: (§1)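 Human TLR7/8/9 HEK-Blue reporter lines; dose range 0.05 nM–50 μM; 30 min RT preincubation; stimulus gardiquimod 7.5 μM / R848 15.9 μM / ODN2006 5 nM respectively; 22 h, 37 °C; SEAP detected colorimetrically.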

[3] = molecular target: T3, human TLR7 (Homo sapiens, UniProt Q9NYK1); test: TLR7 inhibition reporter assay (HEK-Blue cells, SEAP reporter, gardiquimod stimulation); settings: HEK-Blue cells overexpressing human TLR7, SEAP reporter, gardiquimod 7.5 μM; read-out: TLR7 IC50
T3 construct: host or cells: HEK-Blue cells
T3 sequence (Q9NYK1 27-1049): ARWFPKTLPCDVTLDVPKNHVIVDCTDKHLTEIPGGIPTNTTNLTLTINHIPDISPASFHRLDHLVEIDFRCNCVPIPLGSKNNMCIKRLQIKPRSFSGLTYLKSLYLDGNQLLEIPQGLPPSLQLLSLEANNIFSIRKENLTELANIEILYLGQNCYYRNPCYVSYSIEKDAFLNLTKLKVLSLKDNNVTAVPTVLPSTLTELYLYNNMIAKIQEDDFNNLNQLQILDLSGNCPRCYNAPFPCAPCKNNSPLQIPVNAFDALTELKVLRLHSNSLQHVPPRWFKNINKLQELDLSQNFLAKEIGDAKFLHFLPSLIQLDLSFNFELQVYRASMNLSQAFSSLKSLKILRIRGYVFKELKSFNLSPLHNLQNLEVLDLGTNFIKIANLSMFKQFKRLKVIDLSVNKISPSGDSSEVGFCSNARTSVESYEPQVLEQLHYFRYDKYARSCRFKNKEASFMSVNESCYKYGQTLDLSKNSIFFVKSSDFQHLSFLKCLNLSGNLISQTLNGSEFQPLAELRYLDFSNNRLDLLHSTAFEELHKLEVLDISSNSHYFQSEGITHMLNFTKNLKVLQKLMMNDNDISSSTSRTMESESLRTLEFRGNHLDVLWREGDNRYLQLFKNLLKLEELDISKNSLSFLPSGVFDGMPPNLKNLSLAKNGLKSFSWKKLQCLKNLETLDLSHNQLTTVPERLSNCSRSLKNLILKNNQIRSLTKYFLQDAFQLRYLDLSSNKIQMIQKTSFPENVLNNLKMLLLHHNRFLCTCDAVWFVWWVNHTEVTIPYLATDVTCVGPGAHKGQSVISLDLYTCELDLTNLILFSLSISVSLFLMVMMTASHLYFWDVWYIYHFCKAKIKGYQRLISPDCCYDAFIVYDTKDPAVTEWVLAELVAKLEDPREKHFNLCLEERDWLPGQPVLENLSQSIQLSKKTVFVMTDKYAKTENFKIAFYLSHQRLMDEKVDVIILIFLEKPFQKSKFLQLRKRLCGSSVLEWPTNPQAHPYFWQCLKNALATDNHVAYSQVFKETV
In short: as §1

Compound	IC50 [1] [nM]	IC50 [2] [nM]	IC50 [3] [nM]
CNCC(=O)N1C[C@H](C)N(c2nc3c(C(C)C)c(-c4cn5ncnc5c(C)c4C)[nH]c3s2)C[C@H]1C [Example 340, 1-((2R,5S)-4-(5-(7,8-dimethyl-[1,2,4]triazolo[1,5-a]pyridin-6-yl)-6-isopropyl-4H-pyrrolo[3,2-d]thiazol-2-yl)-2,5-dimethylpiperazin-1-yl)-2-(methylamino)ethan-1-one]	5220	3.38	4.64
Cc1c(-c2[nH]c3sc(C4CCC(NCC(C)(C)O)CC4)nc3c2C(C)C)cn(C)c(=O)c1C (single isomer, unassigned) [Example 252, 5-(2-(4-((2-hydroxy-2-methylpropyl)amino)cyclohexyl)-6-isopropyl-4H-pyrrolo[3,2-d]thiazol-5-yl)-1,3,4-trimethylpyridin-2(1H)-one]	> 50000	35.8	67.9
CC(C)c1c(-c2cn(C)c3ncccc23)[nH]c2sc(C3CCN(CC(=O)N(C)C)CC3)nc12 [Example 30, 2-(4-(6-isopropyl-5-(1-methyl-1H-pyrrolo[2,3-b]pyridin-3-yl)-4H-pyrrolo[3,2-d]thiazol-2-yl)piperidin-1-yl)-N,N-dimethylacetamide]	14800	2.07	4.37
CC(C)c1c(-c2ccc(C#N)c3ncccc23)[nH]c2sc(C3CCN(C(=O)CN(C)C)CC3)nc12 [Example 39, 5-(2-(1-(dimethylglycyl)piperidin-4-yl)-6-isopropyl-4H-pyrrolo[3,2-d]thiazol-5-yl)quinoline-8-carbonitrile]	3560	25.5	8.31

The remaining lines, values ahead:

IC50 [1] [nM]	IC50 [2] [nM]	IC50 [3] [nM]	Compound
15600	4.43	1.32	COc1cc(-c2[nH]c3sc(C4CCC(N(C)CCS(C)(=O)=O)CC4)nc3c2C(C)C)cn2ncnc12 (single isomer, unassigned) [Example 164, 4-(6-isopropyl-5-(8-methoxy-[1,2,4]triazolo[1,5-a]pyridin-6-yl)-4H-pyrrolo[3,2-d]thiazol-2-yl)-N-methyl-N-(2-(methylsulfonyl)ethyl) cyclohexan-1-amine]
23100	1.34	4.24	Cc1c(-c2[nH]c3sc(C4CCN(CC(=O)N(C)C)CC4)nc3c2C(C)C)cn2ncnc2c1C [Example 57, 2-(4-(5-(7,8-dimethyl-[1,2,4]triazolo[1,5-a]pyridin-6-yl)-6-isopropyl-4H-pyrrolo[3,2-d]thiazol-2-yl)piperidin-1-yl)-N,N-dimethylacetamide]
9370	1.79	1.5	CCN(C)C1CCC(c2nc3c(C(C)C)c(-c4cn5ncnc5c(C)c4C)[nH]c3s2)CC1 (single isomer, unassigned) [Example 191, 4-(5-(7,8-dimethyl-[1,2,4]triazolo[1,5-a]pyridin-6-yl)-6-isopropyl-4H-pyrrolo[3,2-d]thiazol-2-yl)-N-ethyl-N-methylcyclohexan-1-amine]
20000	0.52	1	CNC(=O)CNC1CCC(c2nc3c(C(C)C)c(-c4cn5ncnc5c(C)c4C)[nH]c3s2)CC1 (single isomer, unassigned) [Example 208, 2-((4-(5-(7,8-dimethyl-[1,2,4]triazolo[1,5-a]pyridin-6-yl)-6-isopropyl-4H-pyrrolo[3,2-d]thiazol-2-yl)cyclohexyl)amino)-N-methylacetamide]
14300	90.9	2.25	COc1cc(-c2[nH]c3sc(C4CCC(NC5(C#N)CC5)CC4)nc3c2C(C)C)cn2ncnc12 (stereo not drawn) [Example 106, 1-((4-(6-isopropyl-5-(8-methoxy-[1,2,4]triazolo[1,5-a]pyridin-6-yl)-4H-pyrrolo[3,2-d]thiazol-2-yl)cyclohexyl)amino)cyclopropane-1-carbonitrile]
